The experiment concerns PC3 prostate cancer cells. As to the kind of experiment: Cell viability of prostate cancer PC3 cells after 72 hours treatment. To be noted: Homo sapiens; for viability at 2.5 µM: PC-3, 2.5 μM; for viability at 5 µM: PC-3, 5 μM; for viability at 10 µM: PC-3, 10 μM; for viability at 20 µM: PC-3, 20 μM. It counts as cell-based. The method, then: Effects of compounds LLS42-LLS80 on the viability of PC3 prostate cancer cells after 72 hours of treatment are shown in Table 2 below: […]

For orientation: viability means a read-out of living cells in per cent, often relative to untreated cells.

Turning to `NC(=O)CC(NCc1cccc2ccccc12)c1ccc2c(c1)nc(-c1ccc(N(CCO)CCO)cc1)n2Cc1ccc(C(F)(F)F)cc1` (centres unmarked) [LLS73, 3-(2-(4-(bis(2-hydroxyethyl)amino)phenyl)-1-(4-(trifluoromethyl)benzyl)-1H-benzo[d]imidazol-5-yl)-3-((naphthalen-1-ylmethyl)amino)propanamide], the viability at 2.5 µM turned out to be 94%, the viability at 5 µM turned out to be 92%, the viability at 10 µM turned out to be 69% and the viability at 20 µM was 8%.

Regarding `NC(=O)CC(NCc1ccc(-c2cncnc2)cc1)c1ccc2c(c1)nc(-c1ccc(N(CCO)CCO)cc1)n2Cc1ccc(OC(F)(F)F)cc1` (centres unmarked) [LLS51, 3-(2-(4-(bis(2-hydroxyethyl)amino)phenyl)-1-(4-(trifluoromethoxy)benzyl)-1H-benzo[d]imidazol-5-yl)-3-((4-(pyrimidin-5-yl)benzyl)amino)propanamide], the viability at 2.5 µM is 83%, the viability at 5 µM is 79%, the viability at 10 µM stood at 99% and the viability at 20 µM was found to be 105%.

Take `COc1cccc(Cn2c(-c3ccc(N(CCO)CCO)cc3)nc3cc(C(CC(N)=O)NCc4ccc5[nH]ncc5c4)ccc32)c1` (centres unmarked) [LLS59, 3-(((1H-indazol-5-yl)methyl)amino)-3-(2-(4-(bis(2-hydroxyethyl)amino)phenyl)-1-(3-methoxybenzyl)-1H-benzo[d]imidazol-5-yl)propanamide]: the viability at 2.5 µM turned out to be 83%, the viability at 5 µM came to 97%, the viability at 10 µM turned out to be 90% and the viability at 20 µM amounted to 91%.

`CC(=O)OCCN(CCOC(C)=O)c1ccc(-c2nc3cc(C(CC(N)=O)NCc4ccc(-c5ccn[nH]5)s4)ccc3n2CCCN(C)C)cc1` (centres unmarked) [LLS78, ((4-(5-(1-(((5-(1H-pyrazol-5-yl)thiophen-2-yl)methyl)amino)-3-amino-3-oxopropyl)-1-(3-(dimethylamino)propyl)-1H-benzo[d]imidazol-2-yl)phenyl)azanediyl)bis(ethane-2,1-diyl) Diacetate]: the viability at 2.5 µM was found to be 97%, the viability at 5 µM came out at 93%, the viability at 10 µM is 101% and the viability at 20 µM was 100%.

As for `CN1CCN(c2ccc(-c3nc4cc(C(CC(N)=O)NCc5ccc(Cl)c(Cl)c5)ccc4n3Cc3ccc(C(F)(F)F)cc3)cc2)CC1` (centres unmarked) [LLS64, 3-((3,4-dichlorobenzyl)amino)-3-(2-(4-(4-methylpiperazin-1-yl)phenyl)-1-(4-(trifluoromethyl)benzyl)-1H-benzo[d]imidazol-5-yl)propanamide], the viability at 2.5 µM was found to be 94%, the viability at 5 µM is 83%, the viability at 10 µM amounted to 60% and the viability at 20 µM was 3%.

`NC(=O)CC(NCc1ccc(Cl)c(Cl)c1)c1ccc2c(c1)nc(-c1ccc(N3CCOCC3)cc1)n2CCCN1CCCCC1` (centres unmarked) [LLS65, 3-((3,4-dichlorobenzyl)amino)-3-(2-(4-morpholinophenyl)-1-(3-(piperidin-1-yl)propyl)-1H-benzo[d]imidazol-5-yl)propanamide]: the viability at 2.5 µM was determined as 95%, the viability at 5 µM came out at 94%, the viability at 10 µM turned out to be 74% and the viability at 20 µM came out at 34%.

Take `COc1cc(CNC(CC(N)=O)c2ccc3c(c2)nc(-c2ccc(N(CCOC(C)=O)CCOC(C)=O)cc2)n3C(C)C)cc(Br)c1OC` (centres unmarked) [LLS43Ac, ((4-(5-(3-amino-1-((3-bromo-4,5-dimethoxybenzyl)amino)-3-oxopropyl)-1-isopropyl-1H-benzo[d]imidazol-2-yl)phenyl)azanediyl)bis(ethane-2,1-diyl) Diacetate]: the viability at 2.5 µM was 97%, the viability at 5 µM worked out at 102%, the viability at 10 µM was determined as 103% and the viability at 20 µM worked out at 97%.

Take `COc1ccc(CCn2c(-c3ccc(N(CCO)CCO)cc3)nc3cc(C(CC(N)=O)NCC4CCCCC4)ccc32)cc1` (centres unmarked) [LLS56]: the viability at 2.5 µM amounted to 104%, the viability at 5 µM is 105%, the viability at 10 µM was determined as 98% and the viability at 20 µM stood at 93%.

Take `COc1cc(CNC(CC(N)=O)c2ccc3c(c2)nc(-c2ccc(N(CCO)CCOC(C)=O)cc2)n3C(C)C)cc(Br)c1OC` (centres unmarked) [LLS43, 2-((4-(5-(3-amino-1-((3-bromo-4,5-dimethoxybenzyl)amino)-3-oxopropyl)-1-isopropyl-1H-benzo[d]imidazol-2-yl)phenyl)(2-hydroxyethyl)amino)ethyl Acetate]: the viability at 2.5 µM was 105%, the viability at 5 µM turned out to be 102%, the viability at 10 µM was 101% and the viability at 20 µM amounted to 105%.

For `NC(=O)CC(NCc1ccc(-c2ccncc2)cc1)c1ccc2c(c1)nc(-c1ccc(N(CCO)CCO)cc1)n2CCCn1ccnc1` (centres unmarked) [LLS58, 3-(1-(3-(1H-imidazol-1-yl)propyl)-2-(4-(bis(2-hydroxyethyl)amino)phenyl)-1H-benzo[d]imidazol-5-yl)-3-((4-(pyridin-4-yl)benzyl)amino)propanamide], the viability at 2.5 µM amounted to 92%, the viability at 5 µM worked out at 84%, the viability at 10 µM is 81% and the viability at 20 µM worked out at 74%.

Take `COc1ccc(CCn2c(-c3ccc(N(CCO)CCO)cc3)nc3cc(C(CC(N)=O)NCc4ccc5[nH]ncc5c4)ccc32)cc1` (centres unmarked) [LLS53, 3-(((1H-indazol-5-yl)methyl)amino)-3-(2-(4-(bis(2-hydroxyethyl)amino)phenyl)-1-(4-methoxyphenethyl)-1H-benzo[d]imidazol-5-yl)propanamide]: the viability at 2.5 µM was determined as 93%, the viability at 5 µM was determined as 91%, the viability at 10 µM worked out at 98% and the viability at 20 µM was 105%.

On to `NC(=O)CC(NCc1ccc2[nH]ncc2c1)c1ccc2c(c1)nc(-c1ccc(N(CCO)CCO)cc1)n2Cc1ccc(C(F)(F)F)cc1` (centres unmarked) [LLS77, 3-(((1H-indazol-5-yl)methyl)amino)-3-(2-(4-(bis(2-hydroxyethyl)amino)phenyl)-1-(4-(trifluoromethyl)benzyl)-1H-benzo[d]imidazol-5-yl)propanamide], for which the viability at 2.5 µM was 99%, the viability at 5 µM came out at 100%, the viability at 10 µM is 101% and the viability at 20 µM came to 103%.

`NC(=O)CC(NCC1CCCCC1)c1ccc2c(c1)nc(-c1ccc(N(CCO)CCO)cc1)n2Cc1ccc(OC(F)(F)F)cc1` (centres unmarked) [LLS42, 3-(2-(4-(bis(2-hydroxyethyl)amino)phenyl)-1-(4-(trifluoromethoxy)benzyl)-1H-benzo[d]imidazol-5-yl)-3-((cyclohexylmethyl)amino)propanamide]: the viability at 2.5 µM came to 95%, the viability at 5 µM came out at 92%, the viability at 10 µM was determined as 49% and the viability at 20 µM worked out at 0%.

Turning to `NC(=O)CC(NCc1ccc(Cl)c(Cl)c1)c1ccc2c(c1)nc(-c1ccc(N(CCO)CCO)cc1)n2CCCN1CCCCC1` (centres unmarked) [LLS46, 3-(2-(4-(bis(2-hydroxyethyl)amino)phenyl)-1-(3-(piperidin-1-yl)propyl)-1H-benzo[d]imidazol-5-yl)-3-((3,4-dichlorobenzyl)amino)propanamide], the viability at 2.5 µM worked out at 86%, the viability at 5 µM came out at 97%, the viability at 10 µM was 92% and the viability at 20 µM was found to be 94%.

Values taken from patent US10844052B2, “LLS compounds for treatment of cancer” (THE REGENTS OF THE UNIVERSITY OF CALIFORNIA, priority 2016, dated 2020).
